In PubChem BioAssay AID272 (DTP/NCI, 2004):
Where “and” joins values, the source holds several entries; their conditions need not be identical. Equal values may be shown once. Results filed as inconclusive are left out.

System: Lewis lung carcinoma i.m., BDF1 mice, T/C %
Assay: NCI In Vivo Anticancer Drug Screen. Data for tumor model Lewis Lung Carcinoma (intramuscular) in B6D2F1 (BDF1) mice
Procedure, shortened: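 Value is the ratio of a treated-group measurement (T) to the matching vehicle-control measurement (C), using either survival or tumour size in mice bearing transplanted tumours.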

SMILES: Nc1nncs1
- T/C (endpoint: mean tumor weight, dose: 6.25 mg/kg/injection, schedule: Q01DX011 (ip), vehicle: water, higher = larger tumour): 87 % of control
- T/C (endpoint: mean tumor weight, dose: 12.5 mg/kg/injection, schedule: Q01DX011 (ip), vehicle: water, higher = larger tumour): 80 % of control
- T/C (endpoint: mean tumor weight, dose: 25.0 mg/kg/injection, schedule: Q01DX011 (ip), vehicle: water, higher = larger tumour): 74 % of control
- T/C (endpoint: mean tumor weight, dose: 50.0 mg/kg/injection, schedule: Q01DX011 (ip), vehicle: water, higher = larger tumour): 36 % of control
- T/C (endpoint: median survival time, dose: 6.25 mg/kg/injection, schedule: Q01DX011 (ip), vehicle: water, higher = longer survival): 121 % of control
- T/C (endpoint: median survival time, dose: 25.0 mg/kg/injection, schedule: Q01DX011 (ip), vehicle: water, higher = longer survival): 123 % of control

SMILES: O=P1(NCCCl)OCCCN1CCCl (stereo unspecified)
- T/C (endpoint: mean tumor weight, dose: 23.0 mg/kg/injection, schedule: Q01DX011 (ip), vehicle: water, higher = larger tumour): 101 % of control
- T/C (endpoint: mean tumor weight, dose: 39.0 mg/kg/injection, schedule: Q01DX011 (ip), vehicle: water, higher = larger tumour): 66 % of control
- T/C (endpoint: mean tumor weight, dose: 108.0 mg/kg/injection, schedule: Q01DX001 (ip), vehicle: water, higher = larger tumour): 72 % of control
- T/C (endpoint: mean tumor weight, dose: 180.0 mg/kg/injection, schedule: Q01DX001 (ip), vehicle: water, higher = larger tumour): 14 % of control
- T/C (endpoint: median survival time, dose: 23.0 mg/kg/injection, schedule: Q01DX011 (ip), vehicle: water, higher = longer survival): 118 % of control and 122 % of control
- T/C (endpoint: median survival time, dose: 39.0 mg/kg/injection, schedule: Q01DX011 (ip), vehicle: water, higher = longer survival): 94 % of control and 124 % of control
- T/C (endpoint: median survival time, dose: 65.0 mg/kg/injection, schedule: Q07DX Z (ip), vehicle: water, higher = longer survival): 110 % of control
- T/C (endpoint: median survival time, dose: 108.0 mg/kg/injection, schedule: Q01DX001 (ip), vehicle: water, higher = longer survival): 88 % of control and 98 % of control
- T/C (endpoint: median survival time, dose: 108.0 mg/kg/injection, schedule: Q01DX011 (ip), vehicle: water, higher = longer survival): 104 % of control
- T/C (endpoint: median survival time, dose: 108.0 mg/kg/injection, schedule: Q04DX Z (ip), vehicle: water, higher = longer survival): 98 % of control
- T/C (endpoint: median survival time, dose: 108.0 mg/kg/injection, schedule: Q07DX Z (ip), vehicle: water, higher = longer survival): 112 % of control
- T/C (endpoint: median survival time, dose: 180.0 mg/kg/injection, schedule: Q01DX001 (ip), vehicle: water, higher = longer survival): 114 % of control
- T/C (endpoint: median survival time, dose: 180.0 mg/kg/injection, schedule: Q07DX Z (ip), vehicle: water, higher = longer survival): 104 % of control
- T/C (endpoint: median survival time, dose: 300.0 mg/kg/injection, schedule: Q01DX001 (ip), vehicle: water, higher = longer survival): 164 % of control and 178 % of control
- T/C (endpoint: median survival time, dose: 300.0 mg/kg/injection, schedule: Q04DX Z (ip), vehicle: water, higher = longer survival): 120 % of control
- T/C (endpoint: median survival time, dose: 300.0 mg/kg/injection, schedule: Q07DX Z (ip), vehicle: water, higher = longer survival): 158 % of control

SMILES: O=C[C@@H](CO)O[C@H](C=O)n1cnc2c(=O)[nH]cnc21
- T/C (endpoint: mean tumor weight, dose: 37.5 mg/kg/injection, schedule: Q01DX011 (ip), vehicle: saline, higher = larger tumour): 53 % of control
- T/C (endpoint: mean tumor weight, dose: 39.0 mg/kg/injection, schedule: Q01DX011 (ip), vehicle: saline, higher = larger tumour): 49 % of control
- T/C (endpoint: mean tumor weight, dose: 65.0 mg/kg/injection, schedule: Q01DX011 (ip), vehicle: saline, higher = larger tumour): 74 % of control
- T/C (endpoint: mean tumor weight, dose: 75.0 mg/kg/injection, schedule: Q01DX011 (ip), vehicle: saline, higher = larger tumour): 71 % of control
- T/C (endpoint: mean tumor weight, dose: 108.0 mg/kg/injection, schedule: Q01DX011 (ip), vehicle: saline, higher = larger tumour): 60 % of control
- T/C (endpoint: mean tumor weight, dose: 150.0 mg/kg/injection, schedule: Q01DX011 (ip), vehicle: saline, higher = larger tumour): 46 % of control
- T/C (endpoint: median survival time, dose: 39.0 mg/kg/injection, schedule: Q01DX011 (ip), vehicle: saline, higher = longer survival): 115 % of control
- T/C (endpoint: median survival time, dose: 65.0 mg/kg/injection, schedule: Q01DX011 (ip), vehicle: saline, higher = longer survival): 115 % of control
- T/C (endpoint: median survival time, dose: 75.0 mg/kg/injection, schedule: Q01DX011 (ip), vehicle: saline, higher = longer survival): 113 % of control
- T/C (endpoint: median survival time, dose: 108.0 mg/kg/injection, schedule: Q01DX011 (ip), vehicle: saline, higher = longer survival): 103 % of control

SMILES: O=C1CCCN1.O=C1CCCN1.[Br][Co][Br]
- T/C (endpoint: mean tumor weight, dose: 37.5 mg/kg/injection, schedule: Q01DX011 (ip), vehicle: water, higher = larger tumour): 84 % of control
- T/C (endpoint: mean tumor weight, dose: 75.0 mg/kg/injection, schedule: Q01DX011 (ip), vehicle: water, higher = larger tumour): 65 % of control
- T/C (endpoint: median survival time, dose: 37.5 mg/kg/injection, schedule: Q01DX011 (ip), vehicle: water, higher = longer survival): 95 % of control
- T/C (endpoint: median survival time, dose: 75.0 mg/kg/injection, schedule: Q01DX011 (ip), vehicle: water, higher = longer survival): 110 % of control

SMILES: CCc1ccc(/C=C/c2ccc(O)c3ncccc23)[n+](C)c1
- T/C (endpoint: mean tumor weight, dose: 4.0 mg/kg/injection, schedule: Q01DX011 (ip), vehicle: saline, higher = larger tumour): 53 % of control
- T/C (endpoint: mean tumor weight, dose: 8.0 mg/kg/injection, schedule: Q01DX011 (ip), vehicle: saline, higher = larger tumour): 61 % of control
- T/C (endpoint: mean tumor weight, dose: 16.0 mg/kg/injection, schedule: Q01DX011 (ip), vehicle: saline, higher = larger tumour): 46 % of control
- T/C (endpoint: median survival time, dose: 4.0 mg/kg/injection, schedule: Q01DX011 (ip), vehicle: saline, higher = longer survival): 97 % of control
- T/C (endpoint: median survival time, dose: 8.0 mg/kg/injection, schedule: Q01DX011 (ip), vehicle: saline, higher = longer survival): 116 % of control
